Entries after “also recorded” stand apart in the source; their conditions may differ. Residues, ends and D or L forms follow the SMILES beside them. *: point of attachment. Cbz = O=C(OCc1ccccc1)*; CH2F = FC*
Tests used:
STING signaling in BMDCs = experiment: BMDCs stimulated with STING agonist DMXAA; type: cell-based, mouse
Method: (§1) Blood was obtained by retro-orbital sampling at intermediate time points or experimental end points. Blood cells and plasma/sera were separated by centrifugation at 1,500×g for 5 min. at 4° C. Plasmaisera were sent out to Eve Technologies for cytokine array analysis (Chemokine Array 31-Plex and Mouse Procarta IFN 2-plex Featured Assay). Plasma/sera were applied to ELISA according to manufacturer's instructions. For in vitro experiments, cell culture supernatants were obtained by centrifugation at 1,500×g for 5 min. at 4° C. to remove all debris and cells, and were then subjected to ELISA analysis. IFN-β was detected using the LEGEND MAX™ Mouse IFN-β ELISA Kit (BioLegend).
(§2) About 50 to 100 mg of tumor samples were homogenized in 1 ml of TRIzol™ Reagent supplied with 200 μl of stainless steel beads and 0.2 ml of chloroform was added to the samples. Samples were vortexed vigorously for 15 seconds and then incubated at room temperature for 2 to 3 minutes. After centrifugation at 12,000×g for 15 minutes at 4° C., upper aqueous phase of the samples was carefully removed to a new tube and the total RNA was purified using an RNeasy® Mini Kit (Qiagen) according to manufactory's instruction. For the in vitro cultured cell samples, total RNA was isolated using an RNeasy® Mini Kit. The qPCR was performed on an Applied Biosystems 7300 machine after the total RNA was reverse transcribed to cDNA using the SuperScript® III First-Strand Synthesis System (Invitrogen). Primers used for qPCR were as follows: […]

[1] = tested on: STING pathway in BMDCs co-cultured with PBM cells; experiment: Co-culture of BMDCs with olaparib-treated PBM tumor cells; type: cell-based, mouse
Method: as §1
Bone marrow cells were isolated from FVB/NJ mice and cultured in RPMI-1640 containing 10% FBS and 20 ng/ml GM-CSF. BMDCs (bone marrow derived dendritic cells) were harvested for in vitro co-culture assay on day 7 to day 10. About 3×10^5 PBM or PPM tumor cells were cultured in a 6-well plate for 24 hr. and then treated with DMSO or olaparib. After 24 hr incubation with DMSO, olaparib, or olaparib in combination with other drugs (cell cycle inhibitor or apoptosis inhibitor), drugs were removed and tumor cells were washed twice with PBS. BMDCs were added and co-cultured with PBM or PPM cells at a ratio of 1:1 in 1.5 ml culture media in the presence of GM-CSF (20 ng/ml) and lipofectamine (2 μl) for 24 hr. Co-cultured cells were harvested for flow cytometry analysis and floating cells (percentage of BMDCs is about 90%), or RNA analysis. Cell culture supernatants were collected for detection of IFN-β with the ELISA kit. BMDCs generated from C57BL/6J mice were applied for the coculture of BMDCs with ID8 tumor cells. Human dendritic cells purchased from Lonza were used for the coculture of human DCs with DMSO or olaparib-treated human ovarian cancer cells ([…] and UWB1.289+BRCA1).
as §2

[2] = tested on: PBM tumors (Trp53−/−; Brca1−/−; c-Myc); experiment: Orthotopic PBM tumor allograft growth and survival (bioluminescence); type: in vivo, mouse; settings: PBM tumors; agent given together with olaparib
Method: All animal experiments described in this study were performed according to the animal protocols approved by the DFCI Institutional Animal Care and Use Committee. Brca1^loxP/loxP [FVB/N] mice, bearing loxP sites in introns 4 and 13 of the Brca1 gene, and Trp53^loxP/loxP[FVB/N] mice bearing loxP in introns 2 and 10 of the p53 gene, were obtained from Dr. Jos Jonkers's laboratory (Netherlands Cancer Institute, Amsterdam, The Netherlands). These mice were intercrossed through multiple generations to create a colony of homozygous Trp53^loxP/loxP/Brca1^loxP/loxP double conditional knockout mice. Ovaries were harvested from 8-week-old female Trp53^loxP/loxP/Brca1^loxP/loxP mice. The ovaries were washed twice with phosphate-buffered and incubated in DMEM/F12 (Ham's) medium containing collagenase and dispase (stem cell technologies) for 40 min at 37° C. The epithelial cells were pelleted by centrifugation at 800×g and cultured in DMEM/F12 (Life Technologies) supplemented with 4% (vol/vol) FBS, 1% penicillin/streptomycin, 10 ng/mL EGF, 5 μg/mL insulin, 5 Cpg/mL transferrin, and 5 ng/mL sodium selenite. Ovarian surface epithelial (OSE) cells were cultured for 48 hr and then introduced with Adeno-Cre (University of Iowa) and lentiviruses expressing C-Myc gene (Addgene #36980) or control GFP. After two days of infection in vitro, OSE cells are aggregated and implanted into recipient mice. About 5×10^5 OSE cells (Trp53^−/−; Brca1^−/−; c-Myc) were injected into the right ovarian bursal cavities of 6- to 7-week-old female nude mice. In each mouse, the left ovarian bursa was injected with GFP-expressing OSE cells (Trp53^−/−; Brca1^−/−; GFP). PBM (Trp53^−/−; Brca1^−/−; c-Myc) ovarian tumors developed within three to six months after implantation of the genetically engineered OSE cells. The primary ovarian tumors were digested and orthotopically transplanted to FVB/NJ mice. The PPM GEM model (Trp53^−/−; Pten^−/−; c-Myc) was developed with OSE cells isolated from homozygous Trp53^loxP/loxP/Pten^loxP/loxP(FVB/NJ) double conditional knockout mice using the same strategy for generation of the PBM GEM model described above. For histological analysis, tumor pieces were fixed in 10% Formalin overnight and transferred to 70% ethanol. Embedding, sectioning and H&E staining was performed by scientists at the Harvard rodent histopathology core facility. The histological characteristics of high grade ovarian tumor were confirmed by two independent pathologists at Harvard Medical School.
Single cells were obtained by digestion of primary ovarian tumors in collagenase buffer and then cultured in MOT media (DMEM/F12, 0.6% FBS, 10 ng/ml EGF, hydrocortisone 1 μg/ml, cholera toxin 1 ng/ml, 100 μg/ml penicillin-streptomycin, 5 μM Y27632). […] The endpoints were determined by tumor burden and ascites. […]

[3] = tested on: Brca1-proficient and Brca1-deficient tumor cells; experiment: Measurement of IC50 value in tumor cells (MTS, 72 h); type: cell-based; settings: three pairs of models; for gemcitabine except PPM and PBM cells
Method: Tumor cells were seeded in 96-well plates at a density of 1000-3000/well and allowed to adhere overnight. Cells were then exposed to appropriate concentrations of therapeutic agents (or vehicle control) with continuous exposure for 72 h. Growth inhibition was measured by CellTiter Aqueous MTS reagent from Promega by comparing the absorbance at 490 nm of drug-treated cells to that of untreated controls set at 100%. 1C50 values were calculated using non-linear regression model (logarithmic inhibitor vs. normalized response-variable slope) in Graphpad Prism 7.

[4] = tested on: STING pathway in BMDCs co-cultured with ID8 cells; experiment: Co-culture of BMDCs with drug-treated WT or Brca1-null ID8 cells; type: cell-based, mouse; settings: co-cultured with both Brca1-deficient and Brca1 proficient ID8 cells
Method: Brca-1 deficient ID8 cells were generated using a CRISPR double nickase plasmid. ID8 cells cultured in a 6-well plate were transfected with 2 μg/well of BRCA1 double nickase plasmid (sc419362-NIC, Santa Cruz Biotechnology) or control double nickase plasmid (SC-437281, Santa Cruz Biotechnology) using lipofectamine 3000 (Invitrogen). 48 hrs post-transfection, cells were passaged onto a 10 cm plate. After 24 h, puromycin (3 μg/mL) was added to the culture for selection. Puromycin resistant cells were selected and expanded. Due to a lack of a reliable mouse BRCA1 antibody for Western blot, cells were analyzed by DNA sequencing to confirm the disruption of functional Brca1 allele. To generate ID8 tumors, cultured ID8 cells were harvested and resuspended in serum free DMEM. Cells were then mixed with Matrigel (Corning). A total volume of 0.1 ml containing 5×10^6 ID8 cells and 40% Matrigel were injected subcutaneously into the flank of C57BL/6J mice.
Bone marrow cells were isolated from FVB/NJ mice and cultured in RPMI-1640 containing 10% FBS and 20 ng/ml GM-CSF. BMDCs (bone marrow derived dendritic cells) were harvested for in vitro co-culture assay on day 7 to day 10. About 3×10^5 PBM or PPM tumor cells were cultured in a 6-well plate for 24 hr. and then treated with DMSO or olaparib. […]

## O=C(NCCCNc1nc(Nc2cccc(NC(=O)N3CCCC3)c2)ncc1I)c1cccs1 [BX795]
STING signaling in BMDCs; BX795 2 μM, 2 h
  effect on DMXAA-induced IFN-β production from BMDCs: abolished
[1]; agent added to the co-culture
  effect on olaparib-induced IFNβ/CXCL10 expression and STING activation in co-cultured DCs: abrogated
  effect on olaparib-induced phosphorylation of TBK1 in CD11c dendritic cells: reduced
[2]
  effect of added agent on olaparib-induced tumor inhibition / antitumor activity of olaparib: blocked the anti-tumor activity of olaparib; also recorded: attenuated

## Cc1ccc2c(=O)c3cccc(CC(=O)O)c3oc2c1C [DMXAA, 5,6-dimethylxanthenone-4-acetic acid]
STING signaling in BMDCs; DMXAA 5 μg/ml, 2 h
  IFN-β production from BMDCs in culture: strong IFN-β production
STING signaling in BMDCs; Western blot
  STING signaling in BMDCs: activation of the STING signaling

## Nc1ccn([C@@H]2O[C@H](CO)[C@@H](O)C2(F)F)c(=O)n1 [gemcitabine]
[3]
  IC50 values, Brca1-deficient lines in comparison to Brca1-proficient counterparts: no substantial differences

## CC(=O)O[C@H]1C(=O)[C@@]2(C)[C@H]([C@H](OC(=O)c3ccccc3)[C@]3(O)C[C@H](OC(=O)[C@H](O)[C@@H](NC(=O)c4ccccc4)c4ccccc4)C(C)=C1C3(C)C)[C@]1(OC(C)=O)CO[C@@H]1C[C@@H]2O [paclitaxel]
[3]
  IC50 values, Brca1-deficient lines in comparison to Brca1-proficient counterparts: no substantial differences
[4]
  phosphorylation of TBK1 and IRF3 in BMDCs: increased

## Cn1ncnc1[C@H]1c2n[nH]c(=O)c3cc(F)cc(c23)N[C@@H]1c1ccc(F)cc1 [talazoparib]
[3]
  IC50 values, Brca1-deficient lines in comparison to Brca1-proficient counterparts: much more sensitive

## CC(NC(=O)C(NC(=O)OCc1ccccc1)C(C)C)C(=O)NC(CC(=O)O)C(=O)CF (stereo not drawn) [zVAD] (Cbz-Val-Ala-Asp-CH2F; configuration not given here)
[1]; zVAD 10 μM with olaparib 2.5 μM, 24 h pre-treatment
  effect of apoptosis inhibitor on activation of DCs co-cultured with olaparib-treated PBM cells: little effect
